Columns and labels:
Experiment in all cases: relative viability (nuclei count vs DMSO), 5 days (fraction); higher = more cells survive
[1] = compound: COC1=CC=C(C=C1)CN2C=CC3=C2C=C(C=C3)C(=O)NO + O=C(c1cc(Cc2n[nH]c(=O)c3ccccc23)ccc1F)N1CCN(C(=O)C2CC2)CC1 [Olaparib] (partner 8 µM)
How it was run: (§1)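 For relative viability, nuclei counts in treated wells were divided by those in vehicle wells. Lung cancer cell lines had been pin-tool dosed in 1536-well plates the day after seeding and cultured for 5 days, then fixed and stained in one step (final 0.05% Triton X-100, 1% formaldehyde, 1 ug/ml Hoechst) and imaged at 4×. Doses were one drug alone or a fixed anchor-drug dose plus five library-drug doses (not always all listed) in √10 steps, and values are duplicate-plate medians.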

[2] = compound: COC1=CC=C(C=C1)CN2C=CC3=C2C=C(C=C3)C(=O)NO + C[C@]1(O)C[C@@H](c2nc(-c3ccc4ccc(-c5ccccc5)nc4c3)c3c(N)nccn32)C1 [Linsitinib] (partner 1 µM)
How it was run: as §1

Veliparib + Crizotinib = compound: C[C@]1(c2nc3c(C(N)=O)cccc3[nH]2)CCCN1 [Veliparib] + C[C@@H](Oc1cc(-c2cnn(C3CCNCC3)c2)cnc1N)c1c(Cl)ccc(F)c1Cl [Crizotinib] (partner 1 µM)
How it was run: as §1

[3] = compound: COC1=CC=C(C=C1)CN2C=CC3=C2C=C(C=C3)C(=O)NO + CC(=O)c1c(C)c2cnc(Nc3ccc(N4CCNCC4)cn3)nc2n(C2CCCC2)c1=O [Palbociclib] (partner 0.5 µM)
How it was run: as §1

## SW 1573
[1]; first compound 0.253 µM
  relative viability: 0.543
[1]; first compound 0.8 µM
  relative viability: 0.465
[1]; first compound 2.53 µM
  relative viability: 0.432
[1]; first compound 8 µM
  relative viability: 0.334
[2]; first compound 0.253 µM
  relative viability: 0.835
[2]; first compound 0.8 µM
  relative viability: 0.761
[2]; first compound 2.53 µM
  relative viability: 0.666
[2]; first compound 8 µM
  relative viability: 0.514
Veliparib + Crizotinib; first compound 0.02 µM
  relative viability: 0.986
Veliparib + Crizotinib; first compound 0.06325 µM
  relative viability: 0.629
Veliparib + Crizotinib; first compound 0.2 µM
  relative viability: 0.781
Veliparib + Crizotinib; first compound 0.6325 µM
  relative viability: 0.85
Veliparib + Crizotinib; first compound 2 µM
  relative viability: 0.79
[3]; first compound 0.253 µM
  relative viability: 0.397
[3]; first compound 0.8 µM
  relative viability: 0.474
[3]; first compound 2.53 µM
  relative viability: 0.392
[3]; first compound 8 µM
  relative viability: 0.326
